Measurements reported in ChEMBL document CHEMBL4350985, “1,3-Dioxane as a scaffold for potent and selective 5-HT1AR agonist with in-vivo anxiolytic, anti-depressant and anti-nociceptive activity” (Eur J Med Chem, 2019).

How the values were obtained:
[1] = target: T1, Alpha-1D adrenergic receptor (Rattus norvegicus) (UniProt P23944); assay: Antagonist activity at alpha-1d adrenergic receptor in Wistar rat thoracic aorta assessed as inhibition of (-)-noradrenaline-induced contractions
T1 sequence (whole entry): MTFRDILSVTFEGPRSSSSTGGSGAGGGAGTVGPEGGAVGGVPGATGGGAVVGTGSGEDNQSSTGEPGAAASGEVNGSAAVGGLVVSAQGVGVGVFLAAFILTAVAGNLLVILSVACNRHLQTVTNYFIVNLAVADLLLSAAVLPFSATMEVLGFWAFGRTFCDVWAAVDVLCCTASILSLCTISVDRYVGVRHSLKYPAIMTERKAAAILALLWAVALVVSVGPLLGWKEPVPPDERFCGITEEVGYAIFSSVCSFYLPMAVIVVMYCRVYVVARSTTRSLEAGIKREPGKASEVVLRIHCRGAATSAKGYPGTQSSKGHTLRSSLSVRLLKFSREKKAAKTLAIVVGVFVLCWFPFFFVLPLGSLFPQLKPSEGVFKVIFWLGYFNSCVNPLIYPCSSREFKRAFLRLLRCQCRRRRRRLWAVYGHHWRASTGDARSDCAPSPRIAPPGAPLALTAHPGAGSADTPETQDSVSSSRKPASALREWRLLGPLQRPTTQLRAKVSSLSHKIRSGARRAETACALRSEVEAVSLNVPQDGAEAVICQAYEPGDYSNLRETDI

[2] = target: T2, Alpha-1A adrenergic receptor (Homo sapiens, UniProt P35348); assay: biochemical
T2 sequence (P35348 whole entry): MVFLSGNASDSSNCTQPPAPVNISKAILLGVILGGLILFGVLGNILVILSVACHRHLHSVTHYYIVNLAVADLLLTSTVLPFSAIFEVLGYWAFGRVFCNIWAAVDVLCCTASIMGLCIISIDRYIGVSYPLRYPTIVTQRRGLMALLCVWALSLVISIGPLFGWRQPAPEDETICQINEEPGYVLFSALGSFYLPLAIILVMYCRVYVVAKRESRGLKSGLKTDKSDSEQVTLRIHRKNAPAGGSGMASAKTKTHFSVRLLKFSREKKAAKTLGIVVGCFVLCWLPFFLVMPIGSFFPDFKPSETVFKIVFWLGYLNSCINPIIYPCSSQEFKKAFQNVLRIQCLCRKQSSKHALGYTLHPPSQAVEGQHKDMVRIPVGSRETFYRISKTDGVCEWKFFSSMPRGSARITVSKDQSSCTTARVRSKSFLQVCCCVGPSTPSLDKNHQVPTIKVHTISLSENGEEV
Description: Displacement of [3H] prazosin from human cloned adrenoceptor alpha 1A expressed in CHO cell membrane incubated for 30 mins by liquid scintillation counting

[3] = target: T3, Alpha-1B adrenergic receptor (Homo sapiens, UniProt P35368); assay: Displacement of [3H] prazosin from human cloned adrenoceptor alpha 1B expressed in CHO cell membrane incubated for 30 mins by liquid scintillation counter
T3 sequence (P35368 whole entry): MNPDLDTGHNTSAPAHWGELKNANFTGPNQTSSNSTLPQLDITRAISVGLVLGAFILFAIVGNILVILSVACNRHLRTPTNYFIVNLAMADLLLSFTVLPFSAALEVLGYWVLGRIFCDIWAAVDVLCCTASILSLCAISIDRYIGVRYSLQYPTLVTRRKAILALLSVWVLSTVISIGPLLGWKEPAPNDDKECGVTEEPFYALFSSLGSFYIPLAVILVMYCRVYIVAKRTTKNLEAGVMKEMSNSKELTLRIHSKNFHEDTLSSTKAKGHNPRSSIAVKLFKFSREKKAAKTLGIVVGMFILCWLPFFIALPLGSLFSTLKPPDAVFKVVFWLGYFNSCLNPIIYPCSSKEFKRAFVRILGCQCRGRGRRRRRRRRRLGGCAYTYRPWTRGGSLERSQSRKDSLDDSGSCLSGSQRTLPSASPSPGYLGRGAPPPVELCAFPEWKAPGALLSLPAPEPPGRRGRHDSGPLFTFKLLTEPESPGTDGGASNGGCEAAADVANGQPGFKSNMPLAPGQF

[4] = target: T4, 5-hydroxytryptamine receptor 1A (Homo sapiens, UniProt P08908); assay: Displacement of [3H]8-OH-DPAT from human cloned 5HT-1AR transfected in HeLa cells incubated for 30 mins by liquid scintillation counter; format: cell-based
T4 sequence (P08908 whole entry): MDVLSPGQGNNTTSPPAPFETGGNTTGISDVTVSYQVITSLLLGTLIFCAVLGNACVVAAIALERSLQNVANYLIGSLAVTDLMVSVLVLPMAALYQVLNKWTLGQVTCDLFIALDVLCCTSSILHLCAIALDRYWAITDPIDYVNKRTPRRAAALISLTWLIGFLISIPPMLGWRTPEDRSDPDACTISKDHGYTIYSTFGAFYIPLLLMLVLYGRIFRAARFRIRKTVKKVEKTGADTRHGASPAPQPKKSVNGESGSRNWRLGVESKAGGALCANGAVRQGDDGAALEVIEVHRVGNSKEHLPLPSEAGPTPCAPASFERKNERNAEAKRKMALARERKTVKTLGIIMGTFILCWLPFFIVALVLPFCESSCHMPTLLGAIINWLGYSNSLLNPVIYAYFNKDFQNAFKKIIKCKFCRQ

[5] = target: T5, 5-hydroxytryptamine receptor 1A (Homo sapiens) (UniProt P08908); assay: Agonist activity at human recombinant 5HT1A receptor expressed in human HeLa cells assessed as increase in [35S]GTPgammaS binding incubated for 20 mins by liquid scintillation counter relative to control; format: functional, cell-based
T5 sequence (whole entry): T4 sequence (P08908 whole entry)

[6] = target: T6, Alpha-1A adrenergic receptor (Rattus norvegicus) (UniProt P43140); assay: Antagonist activity at alpha-1a adrenergic receptor in Wistar rat prostatic vas deferens assessed as inhibition of (-)-noradrenaline-induced contraction
T6 sequence (whole entry): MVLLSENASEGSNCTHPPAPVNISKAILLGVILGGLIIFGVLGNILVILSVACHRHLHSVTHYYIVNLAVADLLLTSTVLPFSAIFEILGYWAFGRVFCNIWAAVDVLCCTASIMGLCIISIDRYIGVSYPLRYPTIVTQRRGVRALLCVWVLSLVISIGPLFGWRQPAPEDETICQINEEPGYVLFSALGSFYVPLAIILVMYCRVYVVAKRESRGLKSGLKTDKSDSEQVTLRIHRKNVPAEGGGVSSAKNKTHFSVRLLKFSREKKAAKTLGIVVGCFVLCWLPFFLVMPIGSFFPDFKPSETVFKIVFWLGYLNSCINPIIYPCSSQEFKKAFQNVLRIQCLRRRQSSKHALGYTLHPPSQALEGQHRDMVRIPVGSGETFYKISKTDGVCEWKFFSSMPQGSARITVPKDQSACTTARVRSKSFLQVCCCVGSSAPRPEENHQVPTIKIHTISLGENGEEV

| Structure (SMILES) | pKb [1] | Ki [2] [nM] | Ki [3] [nM] | Ki [4] [nM] | Emax [5] [%] | pKb [6] |
| --- | --- | --- | --- | --- | --- | --- |
| COc1ccccc1OCCNCC1COC(c2ccccc2)(c2ccccc2)OC1.O=C(O)C(=O)O | 7.06 | 33.9 | 31.6 | 1.62 | 91.6 | 5.98 |
| c1ccc(OCCNCCOC(c2ccccc2)c2ccccc2)cc1 | 7.73 | 17 | 25.1 | 1.35 | 78.9 | 7.65 |
| COc1ccccc1OCCNCCOC(c1ccccc1)c1ccccc1 | 7.75 | 44.7 | 3020 | 7.24 | 77.3 | 6.18 |
| OCC(CNCCOc1ccccc1)OC(c1ccccc1)c1ccccc1 (stereo unspecified) | 7.07 | 141 | 2290 | 4.57 | 69.5 | < 5 |
| COc1ccccc1OCCNCC[C@H]1CO[C@H](C(c2ccccc2)c2ccccc2)O1 (relative stereo) | 7.25 | 60.3 | 30.9 | 15.5 | 53 | 6.23 |
| COc1ccccc1OCCNCC(CO)OC(c1ccccc1)c1ccccc1 (stereo unspecified) | 7.46 | 83.2 | 91.2 | 1.55 | 90.2 | 6.51 |
| COc1ccccc1OCCNCC[C@@H]1CO[C@H](C(c2ccccc2)c2ccccc2)O1 (relative stereo) | 7.67 | 50.1 | 64.6 | 25.7 | 82.1 | 6.58 |

More lines, now with the values ahead:

| pKb [1] | Ki [2] [nM] | Ki [3] [nM] | Ki [4] [nM] | Emax [5] [%] | pKb [6] | Structure (SMILES) |
| --- | --- | --- | --- | --- | --- | --- |
| 6.76 | 288 | 282 | 23.4 | 88.7 | 5.52 | c1ccc(OCCNCC2COC(c3ccccc3)(c3ccccc3)OC2)cc1 |
| 8.68 | 24.5 | 15.8 | 0.776 | 65.9 | 6.99 | COc1ccccc1OCCNCC1CCOC(c2ccccc2)(c2ccccc2)O1 (stereo unspecified) |
| 8.17 | 7.24 | 14.8 | 0.501 | 22.1 | 6.74 | COc1ccccc1OCCNCCC1COC(c2ccccc2)(c2ccccc2)O1 (stereo unspecified) |
| 7.55 | 38.9 | 56.2 | 1.86 | 79.5 | 6.12 | c1ccc(OCCNCC2CCOC(c3ccccc3)(c3ccccc3)O2)cc1 (stereo unspecified) |
